Reference: ChEMBL document CHEMBL4392877, “Cytotoxic Pregnane Steroidal Glycosides from Chonemorpha megacalyx” (J Nat Prod, 2019)

How the values were obtained:
A549 = assay: Antiproliferative activity against human A549 cells measured after 48 hrs by MTT assay; type: functional, cell-based; settings: A549, 48 h
PC-3 = assay: Antiproliferative activity against human PC3 cells measured after 48 hrs by MTT assay; type: functional, cell-based; settings: PC-3, 48 h
HepG2 = assay: Antiproliferative activity against human HepG2 cells measured after 48 hrs by MTT assay; type: functional, cell-based; settings: HepG2, 48 h
WI-38 = assay: Cytotoxicity activity against human WI38 cells measured after 48 hrs by MTT assay; type: cell-based; settings: WI-38, 48 h

IC50 (A549)	IC50 (PC-3)	IC50 (HepG2)	Compound	IC50 (WI-38)
> 50 µM	> 50 µM	> 50 µM	C[C@H]1O[C@@H](O[C@H]2CC[C@@]3(C)C(=CC[C@H]4C5=CC(=O)[C@@H]6[C@@H](C)OC(=O)[C@]56CC[C@@H]43)C2)C[C@H](O)[C@@H]1O	> 50 µM
> 50 µM	> 50 µM	> 50 µM	CO[C@H]1C[C@@H](O[C@@H]2[C@H](O)C[C@H](O[C@H]3CC[C@@]4(C)C(=CC[C@H]5C6=CC(=O)[C@@H]7[C@@H](C)OC(=O)[C@]67CC[C@@H]54)C3)O[C@@H]2C)O[C@H](C)[C@H]1O	> 50 µM
2.4 µM	3.6 µM	2 µM	CO[C@H]1C[C@H](O[C@H]2CC[C@@]3(C)C(=CC[C@H]4C5=CC(=O)[C@@H]6[C@@H](C)OC(=O)[C@]56CC[C@@H]43)C2)O[C@H](C)[C@H]1O[C@@H]1C[C@@H](OC)[C@H](O)[C@@H](C)O1	5.5 µM
> 50 µM	> 50 µM	> 50 µM	CO[C@H]1C[C@H](O[C@H]2CC[C@@]3(C)[C@@H](CC[C@H]4C5=CC(=O)[C@@H]6[C@@H](C)OC(=O)[C@]56CC[C@@H]43)C2)O[C@H](C)[C@H]1O[C@H]1C[C@@H](OC)[C@H](O)[C@@H](C)O1	> 50 µM
> 50 µM	> 50 µM	> 50 µM	CO[C@H]1C[C@H](O[C@H]2CC[C@@]3(C)C(=C(C=O)[C@@H]4[C@@H]3CC[C@]35C(=O)O[C@H](C)[C@H]3CC[C@]45O)C2)O[C@H](C)[C@H]1O	> 50 µM
> 50 µM	> 50 µM	> 50 µM	CO[C@H]1C[C@@H](O[C@H]2[C@@H](OC)C[C@H](O[C@H]3CC[C@@]4(C)C(=CC[C@@H]5[C@@H]4CC[C@]46C(=O)O[C@H](C)[C@H]4CC[C@]56O)C3)O[C@@H]2C)O[C@H](C)[C@H]1O	> 50 µM
> 50 µM	> 50 µM	> 50 µM	CO[C@H]1C[C@@H](O[C@H]2[C@@H](O)C[C@H](O[C@H]3CC[C@@]4(C)[C@@H](CC[C@H]5C6=CC(=O)[C@@H]7[C@@H](C)OC(=O)[C@]67CC[C@@H]54)C3)O[C@@H]2C)O[C@H](C)[C@H]1O	> 50 µM
> 50 µM	> 50 µM	> 50 µM	CO[C@H]1C[C@@H](O[C@H]2[C@@H](O)C[C@H](O[C@H]3CC[C@@]4(C)C(=CC[C@@H]5[C@@H]4CC[C@]46C(=O)O[C@H](C)[C@H]4CC[C@]56O)C3)O[C@@H]2C)O[C@H](C)[C@H]1O	> 50 µM
> 50 µM	> 50 µM	> 50 µM	CO[C@H]1C[C@H](O[C@H]2CC[C@@]3(C)C(=CC[C@@H]4[C@@H]3CC[C@]35C(=O)O[C@H](C)[C@H]3CC[C@]45O)C2)O[C@H](C)[C@H]1O[C@@H]1C[C@H](OC)[C@H](O[C@@H]2C[C@@H](OC)[C@H](O)[C@@H](C)O2)[C@@H](C)O1	> 50 µM

More lines, now with the values behind:

Compound	IC50 (A549)	IC50 (PC-3)	IC50 (HepG2)	IC50 (WI-38)
C[C@H]1OC(=O)[C@]23CC[C@H]4[C@@H](C(C=O)=C5C[C@@H](O)CC[C@@]54C)[C@@]2(O)CC[C@H]13	> 50 µM	> 50 µM	> 50 µM	> 50 µM
C[C@H]1O[C@@H](O[C@H]2CC[C@@]3(C)[C@@H](CC[C@H]4C5=CC(=O)[C@@H]6[C@@H](C)OC(=O)[C@]56CC[C@@H]43)C2)C[C@H](O)[C@@H]1O	> 50 µM	> 50 µM	> 50 µM	> 50 µM
COc1cccc2c1C(=O)c1c(O)c3c(c(O)c1C2=O)C[C@@](O)(C(=O)CO)C[C@@H]3O[C@H]1C[C@H](N)[C@H](O)[C@H](C)O1 [DOXORUBICIN]	0.5 to 0.8 µM	0.5 to 0.8 µM	0.5 to 0.8 µM	–
C[C@H]1OC(=O)[C@]23CC[C@@H]4[C@@]5(C)CC[C@H](O)CC5=CC[C@@]4(O)[C@@]2(O)CC[C@H]13	> 50 µM	> 50 µM	> 50 µM	> 50 µM
CO[C@H]1C[C@H](O[C@H]2CC[C@@]3(C)[C@@H](CC[C@H]4C5=CC(=O)[C@@H]6[C@@H](C)OC(=O)[C@]56CC[C@@H]43)C2)O[C@H](C)[C@H]1O	> 50 µM	> 50 µM	> 50 µM	> 50 µM
C[C@H]1OC(=O)[C@]23CC[C@H]4[C@@H](CC[C@H]5C[C@@H](O)CC[C@@]54C)[C@@]2(O)CC[C@H]13	> 50 µM	> 50 µM	> 50 µM	> 50 µM
